Counter-ions that a name gives are not always drawn.

A word on the IC50: it is the concentration that inhibits the measured activity by half. Read a high IC50 as weaker potency in that assay.

Sequence of human NK1R (P25103 whole entry): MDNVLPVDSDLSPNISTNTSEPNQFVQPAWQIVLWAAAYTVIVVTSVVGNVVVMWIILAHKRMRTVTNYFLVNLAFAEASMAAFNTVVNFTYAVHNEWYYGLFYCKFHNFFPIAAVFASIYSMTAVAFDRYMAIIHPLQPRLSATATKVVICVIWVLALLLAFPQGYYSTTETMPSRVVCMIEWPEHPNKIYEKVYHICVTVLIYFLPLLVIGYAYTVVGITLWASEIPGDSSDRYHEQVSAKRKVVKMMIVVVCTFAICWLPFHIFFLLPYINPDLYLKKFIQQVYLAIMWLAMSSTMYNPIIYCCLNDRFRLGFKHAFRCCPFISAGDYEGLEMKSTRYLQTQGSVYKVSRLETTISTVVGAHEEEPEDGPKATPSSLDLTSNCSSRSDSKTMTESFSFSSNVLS

The target of the assay is human NK1R (Homo sapiens, UniProt P25103). The experiment in a line: biochemical. As to conditions: displacement of 125I-substance P; human NK1R in COS or CHO cells. Format: binding. How it is done:
To express the cloned human neurokinin-1-receotor (NK1R) transiently in COS, the cDNA for the human NK1R was cloned into the expression vector pCDM9 which was derived from pCDM8 (INVITROGEN) by inserting the ampicillin resistance gene (nucleotide 1973 to 2964 from BLUESCRIPT SK+ (trademark, […], La Jolla, Calif., U.S.A.)) into the Sac II site. Transfection of 20 ug of the plasmid DNA into 10 million COS cells was achieved by electroporation in 800 μl of transfection buffer (135 mM NaCl, 1.2 mM CaCl2, 1.2 mM MgCl2, 2.4 mM K2 HPO4, 0.6 mM KH2 PO4, 10 mM glucose, 10 mM N-2-hydroxyethyl-piperazine-N'-2-ethane sulphonic acid (HEPES) pH 7.4) at 260 V and 950 μF using the IBI GENEZAPPER (trademark IBI, New Haven, Conn., U.S.A.). The cells were incubated in 10% fetal calf serum, 2 mM glutamine, 100 U/ml penicillin-streptomycin, and 90% DMEM media (GIBCO, Grand Island, N.Y., U.S.A.) in 5% CO2 at 37° C. for three days before the binding assay.
To establish a stable cell line expressing cloned human NK1R, the cDNA was subcloned into the vector pRcCMV (INVITROGEN). Transfection of 20 ug of the plasmid DNA into CHO cells was achieved by electroporation in 800 μl of transfection buffer supplemented with 0.625 mg/ml Herring sperm DNA at 300 V and 950 μF using the IBI GENEZAPPER (IBI). The transfected cells were incubated. in CHO media [10% fetal calf serum, 100 U/ml penicillin-streptomycin, 2 mM glutamine, 1/500 hypoxanthinethymidine (ATCC), 90% IMDM media (JRH BIOSCIENCES, Lenexa, Kans., U.S.A.), 0.7 mg/ml G418 (GIBCO)] in 5% CO2 at 37° C. until colonies were visible. Each colony was separated and propagated. The cell clone with the highest number of human NK1R was selected for subsequent applications such as drug screening.
The binding assay of human NK1R expressed in either COS or CHO cells is based on the use of ^125 I-substance P (^125 I-SP, from DU PONT, Boston, Mass.) as a radioactively labeled ligand which competes with unlabeled substance P or any other ligand for binding to the human NK1R. […] The tubes were incubated at 4° C. or at room temperature for 1 hour with gentle shaking. The bound radioactivity was separated from unbound radioactivity by GF/C filter (BRANDEL, Gaithersburg, Md.) which was prewetted with 0.1% polyethylenimine. The filter was washed with 3 ml of wash buffer (50 mM Tris pH 7.5, 5 mM MnCl2, 150 mM NaCl) three times and its radioactivity was determined by gamma counter.
In general terms: Loss of bound radioactivity is the signal in a displacement assay; it reports binding, not function.
`O=C1CCC(C(=O)NC(COCc2cc(C(F)(F)F)cc(C(F)(F)F)c2)C(c2ccccc2)c2ccccc2)N1` (stereo not shown) [Example 63, 1-((3,5-Bis(trifluoromethyl)phenyl)methyloxy)-3,3-diphenyl-2-(pyroglutamylamido)propane] came in with an IC50 of 30 nM.

For the compound `COC(=O)CCNC(COCc1cc(C(F)(F)F)cc(C(F)(F)F)c1)C(c1ccccc1)c1ccccc1` (stereo not shown) [Example 65, 1-((3,5-Bis(trifluoromethyl)phenyl)methyloxy)-2-(2-(carbomethoxy)ethylamino)-3,3-diphenylpropane], the IC50 was 35 nM. This IC50 and that of the compound before are within 1.5-fold of each other.

Compound `O=C1CN(C(COCc2cc(C(F)(F)F)cc(C(F)(F)F)c2)C(c2ccccc2)c2ccccc2)CCN1` (stereo not shown) [Example 66, 4-((1-((3,5-Bis(trifluoromethyl)phenyl)methyloxy)-3,3-diphenyl)prop-2-yl)piperazinium-2-one hemi oxalate salt] came in with a concentration for half-maximal inhibition (IC50) of 4 nM.

With `NC(C(=O)NCc1cc(C(F)(F)F)cc(C(F)(F)F)c1)C(c1ccccc1)c1ccccc1` (stereo not shown) [Example 67, 2-Amino-3,3-diphenyl-N-((3,5-bis(trifluoromethyl)phenyl)methyl)propionamide], the IC50 is 220 nM.

Compound `Cc1cc(CNCC(N)C(c2ccccc2)c2ccccc2)cc(C(F)(F)F)c1` (stereo not shown) [Example 68, 2-Ammonium-3,3-diphenyl-1-((3-methyl, 5-trifluoromethyl)phenyl)methylamino)propane oxalate salt] displayed an IC50 of 400 nM.

In the case of `CS(=O)(=O)NC(COCc1cc(C(F)(F)F)cc(C(F)(F)F)c1)C(c1ccccc1)c1ccccc1` (stereo not shown) [Example 69, 1-((3,5-Bis(trifluoromethyl)phenyl)methyloxy)-3,3-diphenyl-2-methylsulphonamidopropane], the concentration for half-maximal inhibition (IC50) was 35 nM.

Regarding `CN(CC(N)=O)C(COCc1cc(C(F)(F)F)cc(C(F)(F)F)c1)C(c1ccccc1)c1ccccc1` (stereo not shown) [Example 72, 1-((3,5-Bis(trifluoromethyl)phenyl)methyloxy)-2-(N-((carboxamido)methyl)-N-methyl)ammonium-3,3-diphenylpropane oxalate salt], the concentration for half-maximal inhibition (IC50) turned out to be 7 nM.

The record behind these values is patent publication US5629347A, “Aromatic compounds, pharmaceutical compositions containing them and their use in therapy” (Merck Sharp & Dohme Ltd., priority 1991, dated 1997).
